Our source for the AC50 values is US20250171438A1 (Agios Pharmaceuticals, Inc., priority 2022, published 2025).

The test has as its target T1, human PAH with the R408W mutation (Homo sapiens, UniProt P00439, R408W).
T1 construct: expressed in transfected cells
T1 sequence (P00439 1-452 R408W): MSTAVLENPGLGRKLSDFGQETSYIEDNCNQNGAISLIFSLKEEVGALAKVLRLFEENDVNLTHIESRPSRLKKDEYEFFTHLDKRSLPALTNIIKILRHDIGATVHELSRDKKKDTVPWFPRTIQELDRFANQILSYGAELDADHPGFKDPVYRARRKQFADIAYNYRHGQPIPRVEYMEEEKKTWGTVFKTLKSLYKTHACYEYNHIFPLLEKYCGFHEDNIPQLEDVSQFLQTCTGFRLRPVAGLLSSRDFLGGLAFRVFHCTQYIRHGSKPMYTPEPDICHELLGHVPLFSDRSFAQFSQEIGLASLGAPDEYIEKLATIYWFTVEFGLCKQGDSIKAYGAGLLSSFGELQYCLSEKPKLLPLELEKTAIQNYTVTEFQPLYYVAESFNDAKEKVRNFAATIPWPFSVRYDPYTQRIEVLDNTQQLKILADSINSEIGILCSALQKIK
Kind of test: Cell Based Phenylalanine Flux Assay. The conditions noted are these: A375 cells expressing human R408W PAH; 24 hrs compound incubation; 13C-Tyrosine by LC-MS; average where tested multiple times; read-out: AC50.

Take `CC(C)(C)CC(=O)N1CCc2[nH]cnc2[C@H]1c1nc2ccccc2[nH]1` [Example 930, (S)-1-(4-(1H-benzo[d]imidazol-2-yl)-6,7-dihydro-1H-imidazo[4,5-c]pyridin-5(4H)-yl)-3,3-dimethylbutan-1-one]: the AC50 is less than 500 nM.
On to `O=C(CC1CC1)N1CCc2[nH]cnc2[C@H]1c1nc2ccccc2[nH]1` [Example 931, (S)-1-(4-(1H-benzo[d]imidazol-2-yl)-6,7-dihydro-1H-imidazo[4,5-c]pyridin-5(4H)-yl)-2-cyclopropylethanone], for which the AC50 was less than 500 nM.
Regarding `O=C(c1nccs1)N1CCc2[nH]cnc2[C@@H]1c1nc2ccc(Br)cc2[nH]1` [Example 932, (R)-(4-(6-bromo-1H-benzo[d]imidazol-2-yl)-6,7-dihydro-1H-imidazo[4,5-c]pyridin-5(4H)-yl)(thiazol-2-yl)methanone], the AC50 was more than 5000 nM.
As for `O=C(c1nccs1)N1CCc2[nH]cnc2[C@H]1c1nc2ccc(Br)cc2[nH]1` [Example 933, (S)-(4-(6-bromo-1H-benzo[d]imidazol-2-yl)-6,7-dihydro-1H-imidazo[4,5-c]pyridin-5(4H)-yl)(thiazol-2-yl)methanone], the half-maximal activity concentration (AC50) is 1000 to 5000 nM.
In the case of `O=C(CCC1CC1)N1CCc2[nH]cnc2[C@@H]1c1nc2ccc(Br)cc2[nH]1` [Example 934, (R)-1-(4-(6-bromo-1H-benzo[d]imidazol-2-yl)-6,7-dihydro-1H-imidazo[4,5-c]pyridin-5(4H)-yl)-3-cyclopropylpropan-1-one], the half-maximal activity concentration (AC50) fell in the range of 1000 to 5000 nM.
For the compound `O=C(CCC1CC1)N1CCc2[nH]cnc2[C@H]1c1nc2ccc(Br)cc2[nH]1` [Example 935, (S)-1-(4-(6-bromo-1H-benzo[d]imidazol-2-yl)-6,7-dihydro-1H-imidazo[4,5-c]pyridin-5(4H)-yl)-3-cyclopropylpropan-1-one], the half-maximal activity concentration (AC50) is less than 500 nM.
The result for `O=C(c1cnn2ccccc12)N1CCc2[nH]cnc2[C@H]1c1nc2ccc(Cl)cc2[nH]1` [Example 936, (S)-(4-(6-chloro-1H-benzo[d]imidazol-2-yl)-6,7-dihydro-1H-imidazo[4,5-c]pyridin-5(4H)-yl)(pyrazolo[1,5-a]pyridin-3-yl)methanone] reads 1000 to 5000 nM; that for `O=C(c1cnn2ccccc12)N1CCc2[nH]cnc2[C@@H]1c1nc2ccc(Cl)cc2[nH]1` [Example 937, (R)-(4-(6-chloro-1H-benzo[d]imidazol-2-yl)-6,7-dihydro-1H-imidazo[4,5-c]pyridin-5(4H)-yl)(pyrazolo[1,5-a]pyridin-3-yl)methanone], 1000 to 5000 nM; that for `O=C(CCC1CC1)N1CCc2[nH]cnc2[C@@H]1c1nc2ccc(Cl)cc2[nH]1` [Example 938, (R)-1-(4-(6-chloro-1H-benzo[d]imidazol-2-yl)-6,7-dihydro-1H-imidazo[4,5-c]pyridin-5(4H)-yl)-3-cyclopropylpropan-1-one], 1000 to 5000 nM.
For `O=C(CCC1CC1)N1CCc2[nH]cnc2[C@H]1c1nc2ccc(Cl)cc2[nH]1` [Example 939, (S)-1-(4-(6-chloro-1H-benzo[d]imidazol-2-yl)-6,7-dihydro-1H-imidazo[4,5-c]pyridin-5(4H)-yl)-3-cyclopropylpropan-1-one] the value was less than 500 nM; for `O=C(c1cnn2ccccc12)N1CCc2[nH]cnc2[C@H]1c1nc2ccc(Br)cc2[nH]1` [Example 940, (S)-(4-(6-bromo-1H-benzo[d]imidazol-2-yl)-6,7-dihydro-1H-imidazo[4,5-c]pyridin-5(4H)-yl)(pyrazolo[1,5-a]pyridin-3-yl)methanone], 500 to 1000 nM; for `O=C(c1cnn2ccccc12)N1CCc2[nH]cnc2[C@@H]1c1nc2ccc(Br)cc2[nH]1` [Example 941, (R)-(4-(6-bromo-1H-benzo[d]imidazol-2-yl)-6,7-dihydro-1H-imidazo[4,5-c]pyridin-5(4H)-yl)(pyrazolo[1,5-a]pyridin-3-yl)methanone], 1000 to 5000 nM.
`CC(C)(C)CCC(=O)N1CCc2[nH]cnc2[C@H]1c1nc2ccc(Br)cc2[nH]1` [Example 942, (S)-1-(4-(6-bromo-1H-benzo[d]imidazol-2-yl)-6,7-dihydro-1H-imidazo[4,5-c]pyridin-5(4H)-yl)-4,4-dimethylpentan-1-one]: the AC50 was 500 to 1000 nM.
Take `CC(C)(C)CCC(=O)N1CCc2[nH]cnc2[C@@H]1c1nc2ccc(Br)cc2[nH]1` [Example 943, (R)-1-(4-(6-bromo-1H-benzo[d]imidazol-2-yl)-6,7-dihydro-1H-imidazo[4,5-c]pyridin-5(4H)-yl)-4,4-dimethylpentan-1-one]: the half-maximal activity concentration (AC50) fell in the range of 1000 to 5000 nM.
For the compound `O=C(c1cnn2ccc(F)cc12)N1CCc2[nH]cnc2[C@H]1c1nc2ccccc2[nH]1` [Example 944, (S)-(4-(1H-benzo[d]imidazol-2-yl)-6,7-dihydro-1H-imidazo[4,5-c]pyridin-5(4H)-yl)(5-fluoropyrazolo[1,5-a]pyridin-3-yl)methanone], the AC50 is 500 to 1000 nM.
Turning to `O=C(CC1CC1)N1CCc2[nH]cnc2[C@H]1c1nc2ccc(Br)cc2[nH]1` [Example 945, (S)-1-(4-(6-bromo-1H-benzo[d]imidazol-2-yl)-6,7-dihydro-1H-imidazo[4,5-c]pyridin-5(4H)-yl)-2-cyclopropylethanone], the concentration at half-maximal activity (AC50) was less than 500 nM.
Turning to `O=C(CC1CC1)N1CCc2[nH]cnc2[C@@H]1c1nc2ccc(Br)cc2[nH]1` [Example 946, (R)-1-(4-(6-bromo-1H-benzo[d]imidazol-2-yl)-6,7-dihydro-1H-imidazo[4,5-c]pyridin-5(4H)-yl)-2-cyclopropylethanone], the AC50 is 500 to 1000 nM.
As to `O=C(c1cncs1)N1CCc2[nH]cnc2[C@H]1c1nc2ccc(Br)cc2[nH]1` [Example 947, (S)-(4-(6-bromo-1H-benzo[d]imidazol-2-yl)-6,7-dihydro-1H-imidazo[4,5-c]pyridin-5(4H)-yl)(thiazol-5-yl)methanone], the concentration at half-maximal activity (AC50) was in the range of 500 to 1000 nM.
The result for `O=C(c1cncs1)N1CCc2[nH]cnc2[C@@H]1c1nc2ccc(Br)cc2[nH]1` [Example 948, (R)-(4-(6-bromo-1H-benzo[d]imidazol-2-yl)-6,7-dihydro-1H-imidazo[4,5-c]pyridin-5(4H)-yl)(thiazol-5-yl)methanone] reads 1000 to 5000 nM.
The result for `O=C(c1nc(Cl)cs1)N1CCc2[nH]cnc2[C@H]1c1nc2ccc(Br)cc2[nH]1` [Example 949, (S)-(4-(6-bromo-1H-benzo[d]imidazol-2-yl)-6,7-dihydro-1H-imidazo[4,5-c]pyridin-5(4H)-yl)(4-chlorothiazol-2-yl)methanone] reads less than 500 nM.
Consider `O=C(c1nc(Cl)cs1)N1CCc2[nH]cnc2[C@@H]1c1nc2ccc(Br)cc2[nH]1` [Example 950, (R)-(4-(6-bromo-1H-benzo[d]imidazol-2-yl)-6,7-dihydro-1H-imidazo[4,5-c]pyridin-5(4H)-yl)(4-chlorothiazol-2-yl)methanone], for which the concentration at half-maximal activity (AC50) lay within 1000 to 5000 nM.
Regarding `O=C(C1CC1)N1CCc2[nH]cnc2[C@@H]1c1nc2ccc(Br)cc2[nH]1` [Example 951, (R)-(4-(6-bromo-1H-benzo[d]imidazol-2-yl)-6,7-dihydro-1H-imidazo[4,5-c]pyridin-5(4H)-yl)(cyclopropyl)methanone], the AC50 is more than 5000 nM.
As to `O=C(C1CC1)N1CCc2[nH]cnc2[C@H]1c1nc2ccc(Br)cc2[nH]1` [Example 952, (S)-(4-(6-bromo-1H-benzo[d]imidazol-2-yl)-6,7-dihydro-1H-imidazo[4,5-c]pyridin-5(4H)-yl)(cyclopropyl)methanone], the AC50 lay in the range of 500 to 1000 nM.
Regarding `O=C(CC1CC1)N1CCc2[nH]cnc2[C@@H]1c1nc2ccc(Cl)cc2[nH]1` [Example 953, (R)-1-(4-(6-chloro-1H-benzo[d]imidazol-2-yl)-6,7-dihydro-1H-imidazo[4,5-c]pyridin-5(4H)-yl)-2-cyclopropylethanone], the AC50 lay within 1000 to 5000 nM.
Turning to `O=C(CC1CC1)N1CCc2[nH]cnc2[C@H]1c1nc2ccc(Cl)cc2[nH]1` [Example 954, (S)-1-(4-(6-chloro-1H-benzo[d]imidazol-2-yl)-6,7-dihydro-1H-imidazo[4,5-c]pyridin-5(4H)-yl)-2-cyclopropylethanone], the half-maximal activity concentration (AC50) is less than 500 nM.
In the case of `O=C(c1nc(Cl)cs1)N1CCc2[nH]cnc2[C@H]1c1nc2ccc(Cl)cc2[nH]1` [Example 955, (S)-(4-(6-chloro-1H-benzo[d]imidazol-2-yl)-6,7-dihydro-1H-imidazo[4,5-c]pyridin-5(4H)-yl)(4-chlorothiazol-2-yl)methanone], the half-maximal activity concentration (AC50) lay in the range of 500 to 1000 nM.
Take `O=C(c1nncs1)N1CCc2[nH]cnc2[C@@H]1c1nc2ccc(Cl)cc2[nH]1` [Example 957, (R)-(4-(6-chloro-1H-benzo[d]imidazol-2-yl)-6,7-dihydro-1H-imidazo[4,5-c]pyridin-5(4H)-yl)(1,3,4-thiadiazol-2-yl)methanone]: the AC50 is more than 5000 nM.
For `O=C(c1nncs1)N1CCc2[nH]cnc2[C@H]1c1nc2ccc(Cl)cc2[nH]1` [Example 958, (S)-(4-(6-chloro-1H-benzo[d]imidazol-2-yl)-6,7-dihydro-1H-imidazo[4,5-c]pyridin-5(4H)-yl)(1,3,4-thiadiazol-2-yl)methanone] the value was 500 to 1000 nM; for `O=C(C1CC1)N1CCc2[nH]cnc2[C@@H]1c1nc2ccc(Cl)cc2[nH]1` [Example 959, (R)-(4-(6-chloro-1H-benzo[d]imidazol-2-yl)-6,7-dihydro-1H-imidazo[4,5-c]pyridin-5(4H)-yl)(cyclopropyl)methanone], more than 5000 nM; for `O=C(C1CC1)N1CCc2[nH]cnc2[C@H]1c1nc2ccc(Cl)cc2[nH]1` [Example 960, (S)-(4-(6-chloro-1H-benzo[d]imidazol-2-yl)-6,7-dihydro-1H-imidazo[4,5-c]pyridin-5(4H)-yl)(cyclopropyl)methanone], 1000 to 5000 nM.

What is called AC50 is the midpoint of the concentration-response curve, whichever way the signal moves.
